The source of these data is publication PMC11331526 (2024).

The test system of the experiment is d(G5C5)2 (G5C5) (DNA, duplex) GGGGGCCCCC
As to the kind of experiment: emission titration, Bard fit. Particulars: 50 mM potassium phosphate, pH 7, 298 K, table title per base pair, fit per nucleotide.

In the case of `[Ru+2].c1ccc2c(c1)ccc1nc3c4cccnc4c4ncccc4c3nc12.c1cnc2c(ccc3nccnc32)n1.c1cnc2c(ccc3nccnc32)n1`, the Kb (site size 3.4, text prints 10^5) is 9.4(±1.2) × 10^6 M^-1.
Turning to `[Ru+2].c1ccc2cc3nc4c5cccnc5c5ncccc5c4nc3cc2c1.c1cnc2c(ccc3nccnc32)n1.c1cnc2c(ccc3nccnc32)n1`, the Kb (site size 2.6, text error ±0.6) was 2.5(±0.4) × 10^6 M^-1.
